Reference: US7485623B2 (priority 2002, dated 2009)

Assays:
[1] = Example 1: radioactivity and metabolites in breast tissue after percutaneous [3H]-labeled drug
Method: (§1) The patients received [^3H]-labeled drug applied directly on the affected breasts at specified intervals ranging from 12 hours to 7 days before surgery to excise diseased tissue. Breast tissue from three regions: the tumor, tissue immediately surrounding the tumor, and normal tissue, was excised and immediately frozen in liquid nitrogen. Additionally, plasma and urine samples were obtained at scheduled intervals and frozen until analysis.

[2] = Example 1: radioactivity in blood and urine after percutaneous [3H]-labeled drug; conditions: for share of radioactivity in blood: 24 hours after percutaneous [3H]-4-hydroxy tamoxifen
Method: as §1

[3] = Example 3: plasma pharmacokinetics of 4-hydroxy tamoxifen gel in healthy premenopausal women; conditions: for AUC0-24, Mean ± SD / Cav = AUC0-24/24, Mean ± SD / tmax, Mean ± SD / Cmax, Mean ± SD / t1/2 (range): last administration; for Cmax, Mean ± SD: day 25 of second cycle
Method: Each participant applied the gel daily for the duration of two menstrual cycles.
At the end of a menstrual cycle, each patient received a single dose, after which serial blood samples were collected at 0, 0.5, 1, 1.5, 2, 3, 4, 6, 12, 18, 24, 36, 48, and 72 hours.
On the first day of the following menstruation, treatment, which consisted of daily application of the gel over two menstrual cycles, began. Blood samples were collected 24 hours following the morning application of gel on days 7, 20 and 25 of the first and second cycles. On the last day of administration, day 25 of the second menstrual cycle, serial blood samples were collected prior to application and at 0.5, 1, 1.5, 2, 3, 4, 6, 12, 18, 24, 36, 48, and 72 hours after application of the gel.

estrogen receptors = conditions: in vitro; cited from earlier work
estrone sulphatase = molecular target: T1, estrone sulphatase (Homo sapiens, UniProt P08842); conditions: mammary cancer cell lines; cited from earlier work
T1 construct: estrone sulphatase activity in mammary cancer cell lines
T1 sequence (P08842 22-583): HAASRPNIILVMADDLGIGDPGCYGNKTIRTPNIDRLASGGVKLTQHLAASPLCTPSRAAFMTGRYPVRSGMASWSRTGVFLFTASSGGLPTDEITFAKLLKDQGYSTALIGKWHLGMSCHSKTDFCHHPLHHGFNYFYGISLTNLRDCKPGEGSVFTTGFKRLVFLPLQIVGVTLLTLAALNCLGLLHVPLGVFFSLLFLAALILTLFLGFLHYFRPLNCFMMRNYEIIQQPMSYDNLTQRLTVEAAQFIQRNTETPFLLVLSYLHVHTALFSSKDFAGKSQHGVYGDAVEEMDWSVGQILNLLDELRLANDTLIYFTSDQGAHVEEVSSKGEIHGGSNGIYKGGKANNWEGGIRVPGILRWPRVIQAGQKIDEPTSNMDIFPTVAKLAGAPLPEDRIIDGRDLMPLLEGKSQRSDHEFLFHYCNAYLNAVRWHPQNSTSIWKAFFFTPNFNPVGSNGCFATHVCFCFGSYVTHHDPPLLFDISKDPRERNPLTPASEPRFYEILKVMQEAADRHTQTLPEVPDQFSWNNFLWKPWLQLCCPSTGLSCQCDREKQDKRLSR

[4] = topical application
[5] = test system: p53(−) normal human mammary epithelial cells; conditions: cited from earlier work
[6] = oral tamoxifen; cited from earlier work
breast density = conditions: cited from earlier work
rat liver = conditions: cited from earlier work
[7] = Group 2 (0.5 mg/day gel), seventh day; Group 1 (oral tamoxifen), fifth day; cited from earlier work
[8] = 12 hr after percutaneous trans-[3H]-4-hydroxy tamoxifen
[9] = 24 hr after percutaneous trans-[3H]-4-hydroxy tamoxifen
[10] = 36 hr after percutaneous trans-[3H]-4-hydroxy tamoxifen
[11] = Day 4 after percutaneous trans-[3H]-4-hydroxy tamoxifen
[12] = Day 7 after percutaneous trans-[3H]-4-hydroxy tamoxifen
[13] = 0.5 mg/day (n = 12), gel 20 mg/100 g
[14] = 1 mg/day (n = 8), gel 20 mg/100 g
[15] = 1 mg/day (n = 12), gel 57 mg/100 g
[16] = 2 mg/day (n = 12), gel 57 mg/100 g

CC(C)(c1ccc(O)cc1)c1ccc(O)cc1 [Bisphenol]
% Metabolites in Breast Tissue [1, 8]: 1%
% Metabolites in Breast Tissue [1, 9]: 2%
% Metabolites in Breast Tissue [1, 10]: 3%
% Metabolites in Breast Tissue [1, 11]: 8%
% Metabolites in Breast Tissue [1, 12]: 8%
share of radioactivity in blood [2]: 11%

CC/C(=C(\c1ccc(O)cc1)c1ccc(OCCN(C)C)cc1)c1ccccc1 [4-hydroxy tamoxifen, 1-[4-(2-N-dimethylaminoethoxy)phenyl]-1-(4-hydroxyphenyl)-2-phenylbut-1-(Z)-ene]
AUC0-24, Mean ± SD [3, 13]: 0.2563 ng·h/mL
Cav = AUC0-24/24, Mean ± SD [3, 13]: 0.0107 ± 0.0085 ng/mL
tmax, Mean ± SD [3, 13]: 40 ± 81 h
Cmax, Mean ± SD [3, 13]: 0.017 ± 0.0085 ng/mL
AUC0-24, Mean ± SD [3, 14]: 0.3009 ng·h/mL
Cav = AUC0-24/24, Mean ± SD [3, 14]: 0.0125 ± 0.0079 ng/mL
tmax, Mean ± SD [3, 14]: 24 ± 18 h
Cmax, Mean ± SD [3, 14]: 0.021 ± 0.014 ng/mL
AUC0-24, Mean ± SD [3, 15]: 0.619 ± 0.466 ng·h/mL
Cav = AUC0-24/24, Mean ± SD [3, 15]: 0.0258 ± 0.0194 ng/mL
t1/2 (range) [3, 15]: (58-118) hr
tmax, Mean ± SD [3, 15]: 12.8 ± 14.9 h
Cmax, Mean ± SD [3, 15]: 0.0351 ± 0.0224 ng/mL
AUC0-24, Mean ± SD [3, 16]: 0.998 ± 0.653 ng·h/mL
Cav = AUC0-24/24, Mean ± SD [3, 16]: 0.0416 ± 0.0272 ng/mL
t1/2 (range) [3, 16]: (49-101) hr
tmax, Mean ± SD [3, 16]: 11.8 ± 12.3 h
Cmax, Mean ± SD [3, 16]: 0.0516 ± 0.0317 ng/mL
detectability in plasma after the last gel application ([3]; in vivo): remained detectable 72 hours after the last gel application
exposure versus dose ([3]; topical application, 0.5, 1, and 2 mg): increases with dose
% Metabolites in Breast Tissue [1, 8]: 97%
% Metabolites in Breast Tissue [1, 9]: 94%
% Metabolites in Breast Tissue [1, 10]: 78%
% Metabolites in Breast Tissue [1, 11]: 70%
% Metabolites in Breast Tissue [1, 12]: 65%
metabolism in intracellular sites of breast tissue ([1]; cytosolic and nuclear fractions): remained unmetabolized except for limited isomerization from the trans to the cis form
subcellular distribution in breast tissue ([1]; percutaneous application): concentrated predominantly in the cytosolic and nuclear fractions of breast tissue
retention in the breast ([1]; percutaneous application of [3H]-labeled drug): approximately 4 days
binding affinity for estrogen receptors, compared with estradiol (estrogen receptors): a binding affinity similar to estradiol
potency as binding affinity to estrogen receptors, compared with tamoxifen (estrogen receptors): more potency than tamoxifen
effect on estrone sulphatase activity (estrone sulphatase): significant inhibitory effect
systemic effects [4]: no detectable laboratory or clinical evidence of systemic effects
share of radioactivity in blood [2]: 68%
urinary elimination compared to percutaneous tamoxifen ([2]; percutaneous administration): Peak urinary elimination occurred at a later time

CC/C(=C(\c1ccccc1)c1ccc(OCCNC)cc1)c1ccccc1 [N-Desmethyl tamoxifen]
% Metabolites in Breast Tissue [1, 10]: <1%
% Metabolites in Breast Tissue [1, 11]: <1%
% Metabolites in Breast Tissue [1, 12]: 3-4%

CC/C(=C(\c1ccccc1)c1ccc(OCCN(C)C)cc1)c1ccccc1 [tamoxifen]
initiation of apoptosis [5]: initiates apoptosis
side effects reported by patients [6]: hot flashes, vaginal discharge, depression, amenorrhea, and nausea
women with decreased breast parenchyma (breast density; 20 mg/day after surgery for breast cancer (Son et al.)): 59.8%
change of mammographic pattern (breast density; contralateral breasts of postmenopausal breast cancer patients, 20 mg/day): significant change toward a less dense mammographic pattern
decrease of breast parenchyma in premenopausal women (breast density; premenopausal women, 20 mg/day (Son et al.)): 87%
effect on estrone sulphatase activity (estrone sulphatase): little or no effect
rat liver carcinogenicity (rat liver): potent rat liver carcinogen
side effects reported by one person [7]: hot flashes and mild vaginitis

CCC(=C(c1ccc(O)cc1)c1ccc(OCCNC)cc1)c1ccccc1 [N-Desmethyl-4-Hydroxy Tamoxifen]
% Metabolites in Breast Tissue [1, 8]: 2%
% Metabolites in Breast Tissue [1, 9]: 4%
% Metabolites in Breast Tissue [1, 10]: 14%
% Metabolites in Breast Tissue [1, 11]: 20%
% Metabolites in Breast Tissue [1, 12]: 16%
share of radioactivity in blood [2]: 18%

CC/C(=C(\c1ccccc1)c1ccc(OCCN(C)C)cc1)c1ccccc1 [[^3H]-tamoxifen, reference compound]
time of plateau of radioactivity in blood ([2]; percutaneous application): 2 days

CC/C(=C(\c1ccc(O)cc1)c1ccc(OCCN(C)C)cc1)c1ccccc1 [Trans 4-hydroxy tamoxifen]
percentage of radioactivity in breast tissue as isomer of 4-hydroxy tamoxifen ([1]; day 7): 32%
